Key:
[1] = test system: female P rats; test: Pretreatment with α7 NAM SB-277011-A prior to adolescent binge alcohol exposure (ABAE), adult EtOH consumption; type: in vivo, rat
Procedure: Effects of exposure to the α7 negative allosteric modulator (NAM) SB-277011-A prior to adolescence binge alcohol exposure on adult EtOH consumption. Currently, there are 3 commercially available α7 NAMs: DHNK, SB-277011-A (SB), and Butaclamol (AY-23,028). SB is also a selective D3 antagonist. Butaclamol is a typical antipsychotic that is also a non-selective dopamine receptor antagonist. Referring now to FIG. 7, the ability of SB to prevent ABAE-induced increases were assessed in adult EtOH consumption. Briefly, female P rats were exposed to the standard ABAE protocol. ABAE and CON rats were injected (i.p.) with 0 (water), 1 or 5 mg/kg SB (Sigma) 2 hours before gavage treatment. […] Statistically, there was a significant ABAE X SB Dose X Day interaction term (F12,244=2.3; p<0.01). Therefore, the data sets indicate that despite having different off-target sites of activation (SB-D3 antagonist), both α7 NAMs prevented the deleterious consequences of ABAE.

[2] = molecular target: α7 nicotinic receptor (Homo sapiens, UniProt P36544); settings: cited from earlier work
Chain of α7 nicotinic receptor (P36544 23-502): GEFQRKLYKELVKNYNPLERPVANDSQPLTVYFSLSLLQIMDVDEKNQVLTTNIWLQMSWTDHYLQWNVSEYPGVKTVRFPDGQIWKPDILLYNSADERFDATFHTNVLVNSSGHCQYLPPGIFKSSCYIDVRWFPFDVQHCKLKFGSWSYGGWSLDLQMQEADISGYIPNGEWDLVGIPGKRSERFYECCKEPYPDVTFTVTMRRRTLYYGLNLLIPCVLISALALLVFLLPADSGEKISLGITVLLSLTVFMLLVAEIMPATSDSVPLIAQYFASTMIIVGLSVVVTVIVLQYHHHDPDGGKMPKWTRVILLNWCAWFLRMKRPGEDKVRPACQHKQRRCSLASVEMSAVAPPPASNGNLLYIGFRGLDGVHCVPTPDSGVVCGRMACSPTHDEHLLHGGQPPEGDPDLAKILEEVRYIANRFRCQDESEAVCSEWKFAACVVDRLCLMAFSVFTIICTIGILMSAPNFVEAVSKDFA

[3] = test system: Wistar rats; test: Adolescent AR-R17779 exposure, adult operant beer self-administration (acquisition, extinction, relapse); type: in vivo, rat
Excerpt: (§1) Statistical Analysis. All statistical analyses followed the procedures/flowchart indicated by Keppel and Zedeck (1986). Briefly, the experiments examining the acquisition of alcohol consumption utilized the dependent measure of average weekly alcohol intake. The overall analyses were mixed factor ANOVAs with between subject factors of drug dose and EtOH exposure history (when applicable) and a within subject factor of Week. The statistical analyses surveying relapse drinking examined the average EtOH intake for the three days prior to deprivation and daily EtOH intake values following re-exposure. Post-hoc comparisons for between subject factors were performed with Tukey's b analyses. The Tukey's b post-hoc comparison is a modified Tukey post-hoc comparison that reduces the prohibitive penalty for unequal sample size. There is a single assumption of ANOVAs that cannot be violated. […] Therefore, within subject variables should not be treated like between subject variables and analyzed with forced ANOVAs and inappropriate post-hoc analyses. Proper within subject post-hoc analyses are t-tests and orthogonal contrasts (Keppel and Zeddeck, 1986). Given the general lack of understanding of orthogonal contrasts, the findings from t-test analyses are being reported. Concerns of Type I error rate inflation is eliminated by the proper reading of Rodgers (1967). Type 1 error rate inflations is Ψi (i=1, . . . , J−1), and not Bonferroni, an improper estimate. Given the effect size of the current data set there is no likelihood of Type 1 error rate inflation for any reported analyses (c.f., Rodgers and Roberts, 2012; Roberts, 2011).
Effects of exposure to the α7 agonist AR-R17779 during early adolescence on adult EtOH consumption (acquisition, maintenance, extinction, craving, and relapse). The current experiment was conducted to generalize the effects of exposure to an α7 NAchR receptor agonist during adolescence on adult alcohol consumption in non-selected (non-genetically predisposed rats). Brief exposure to AR during adolescence in Wistar rats produced similar alterations in adult beer consumption. Male and female Wistar rats were exposed to AR (0, 3, or 10 mg/kg) on PND 29, 30, 33, 35, 36, and 37 (no alcohol exposure during adolescence). On PND 75 rats were allowed to self-administer beer (9% IPA) under operant conditions.

[4] = test system: alcohol preferring (P) rats; test: Exposure to α7 agonist AR-R17779 during early adolescence, adult EtOH consumption (acquisition and relapse drinking); type: in vivo, rat; settings: for duration of alcohol deprivation effect (ADE): vs baseline intake
Excerpt: (§2) Subjects. The alcohol-preferring (P) rats used in the current experiments were from the standard P stock maintained by the Animal Breeding Core of the Indiana University Alcohol Research Center (IUARC). Animals used in this study were maintained in facilities fully accredited by the Association for the Assessment and Accreditation of Laboratory Animal Care. All research protocols were approved by the IUSM Institutional Animal Care and Use Committee (IUSM IACUC) and were in accordance with the guidelines of the Institutional Care and Use Committee of the National Institute on Drug Abuse, the NIH, and the Guide for the Care and Use of Laboratory Animals (2011).
Effects of exposure to the α7 agonist AR-R17779 during early adolescence on adult EtOH consumption. Adolescent male (n=14) and female (n=13) alcohol preferring (P) rats were exposed to the α7 nicotinic receptor agonist, AR-R17779 ((2S)-2′H-spiro[4-azabicyclo[2.2.2]octane-2,5′-[1,3]oxazolidin]-2′-one) (AR; Tocris) on PND 29, 30, 33, 35, 36, and 37. The doses of AR-R17779 was 0 (saline controls), 3 or 10 mg/kg (all drugs administered i.p.). […] The doses of AR employed are typical for peripheral administered studies and results in observed alterations in specific behaviors. All rats were group housed between PND 26 and 73 (adulthood). Subjects only received treatment with AR_on the days specified.
as §1

[5] = test system: P rats; test: Pretreatment with α7 NAM dehydronorketamine prior to adolescent binge-like alcohol exposure (AIE), adult EtOH consumption; type: in vivo, rat; settings: for effect on deleterious effects of adolescent alcohol exposure (adult alcohol intake, weeks 1-2): males and females
Excerpt: as §2, §1
Effects of pretreatment with an α7 NAM dehydronorketamine prior to binge-like exposure during adolescence on adult EtOH consumption. There were 5 treatment groups. Adolescent male (n=24) and female (n=26) P rats were used in the experiment. The AIE exposure began on PND 28. Rats were given 4 g/kg alcohol (25% v/v; gavage) every Monday, Tuesday, Thursday and Friday (4 days a week; 3 days with no alcohol exposure) from post-natal day 28-48. Control (CON) groups received an equivalent volume administration of water. In the AIE groups, rats were injected (i.p.) with 0 (saline), 10 or 50 mg/kg of the α7 nicotinic receptor NAM dehydronorketamine (DHNK; Santa Cruz biotechnology) 2 hours prior to AIE exposure. CON groups received (i.p.) injections of saline or 50 mg/kg DHNK 2 hours prior to water gavage exposure. All rats were group housed between post-natal day 48 and 73 (adulthood). Pretreatment and gavage administration occurred during PND 28, 29, 30, 31, 34, 35, 37, 39, 40, 41, 44, 45, 47, and 48. Subjects were not exposed to DHNK any time after PND48.

[6] = molecular target: α3β4 (Homo sapiens, UniProt P30926+P32297); settings: read-out: binding to α3β4 IC50; cited from earlier work
Chain of α3β4 (P32297 32-505): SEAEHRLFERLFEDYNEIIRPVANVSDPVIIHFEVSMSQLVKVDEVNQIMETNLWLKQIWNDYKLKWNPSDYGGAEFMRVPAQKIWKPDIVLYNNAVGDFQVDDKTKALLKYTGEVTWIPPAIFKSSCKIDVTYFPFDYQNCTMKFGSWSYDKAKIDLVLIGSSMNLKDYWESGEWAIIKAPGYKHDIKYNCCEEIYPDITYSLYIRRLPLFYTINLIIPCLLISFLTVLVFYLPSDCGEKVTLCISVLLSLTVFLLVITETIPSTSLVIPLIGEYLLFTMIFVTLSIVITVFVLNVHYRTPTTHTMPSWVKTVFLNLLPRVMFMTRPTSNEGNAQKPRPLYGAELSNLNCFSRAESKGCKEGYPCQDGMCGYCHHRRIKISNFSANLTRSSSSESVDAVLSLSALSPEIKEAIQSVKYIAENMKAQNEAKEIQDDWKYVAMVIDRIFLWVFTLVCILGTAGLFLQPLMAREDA
Chain of α3β4 (P30926 22-498): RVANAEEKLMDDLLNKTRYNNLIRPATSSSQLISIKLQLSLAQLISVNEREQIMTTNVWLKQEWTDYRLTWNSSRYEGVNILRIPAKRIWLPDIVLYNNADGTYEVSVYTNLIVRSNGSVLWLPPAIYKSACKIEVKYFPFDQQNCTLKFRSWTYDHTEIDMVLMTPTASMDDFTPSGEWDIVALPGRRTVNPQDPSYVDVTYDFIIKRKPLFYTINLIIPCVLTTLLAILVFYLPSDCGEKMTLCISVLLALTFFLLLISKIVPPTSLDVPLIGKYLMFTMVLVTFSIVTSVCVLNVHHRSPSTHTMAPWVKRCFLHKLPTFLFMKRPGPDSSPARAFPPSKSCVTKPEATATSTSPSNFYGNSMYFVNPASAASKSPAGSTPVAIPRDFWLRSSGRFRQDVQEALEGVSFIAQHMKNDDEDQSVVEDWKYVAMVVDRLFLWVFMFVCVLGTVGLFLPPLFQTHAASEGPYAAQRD

[7] = 1 or 5 mg/kg SB i.p. 2 hours before gavage
[8] = 3 and 10 mg/kg AR during adolescence

N#Cc1ccc2c(c1)CCN(CC[C@H]1CC[C@H](NC(=O)c3ccnc4ccccc34)CC1)C2 [SB-277011-A, N-{trans-4-[2-(6-cyano-3,4-dihydroisoquinolin-2(1H)-yl)ethyl]cyclohexyl}quinoline-4-carboxamide]
relapse EtOH drinking, ABAE vs corresponding CON group (FIG. 8, +) ([1]; 1 mg/kg SB prior to ABAE): consumed more alcohol than corresponding CON group
adult EtOH consumption (FIG. 7, +) ([1]; 1 mg/kg vs 5 mg/kg SB): 1 mg/kg>5 mg/kg SB rats
adult EtOH consumption (FIG. 7, #) ([1]; 5 mg/kg SB vs water-ABAE and 1 mg/kg SB): water-ABAE and 1 mg/kg SB>5 mg/kg SB rats
adult EtOH consumption (FIG. 7, *) ([1]; 1 and 5 mg/kg SB vs water-ABAE): water-ABAE rats >1 mg and 5 mg/kg SB rats
effect on ABAE-induced enhancement of EtOH consumption during relapse (ADE) [1, 7]: prevented ABAE-induced enhancement of EtOH consumption during relapse (ADE) conditions
effect on ABAE-induced increase in EtOH consumption during acquisition [1, 7]: prevented the ABAE-induced increase in EtOH consumption during acquisition

O=C1NC[C@@]2(CN3CCC2CC3)O1 [AR-R17779, (2S)-2′H-spiro[4-azabicyclo[2.2.2]octane-2,5′-[1,3]oxazolidin]-2′-one]
affinity for receptors other than α7 nicotinic receptor [2]: no or minimal affinity for all other examined receptors
beer self-administration during adulthood (FIG. 4, *) [3, 8]: 3 and 10 AR>saline
beer self-administration during adulthood (FIG. 4, +) [3, 8]: 10>3>saline
acquisition of alcohol self-administration, sessions 7-14 ([3]; AR 3 or 10 mg/kg during adolescence, beer (9% IPA), operant): acquired alcohol self-administration faster than controls
rate of extinction learning ([3]; adolescent exposure, no alcohol available): retarded the rate of extinction learning
relapse drinking (individual ANOVAs) ([3]; alcohol re-exposure, p values<0.001): enhanced relapse drinking
lever responding, extinction session 3 ([3]; highest dose of AR-R17779): responded more on the lever previously associated with delivery of alcohol than all other groups
alcohol consumed during re-exposure sessions (post-hoc) ([3]; vs saline controls): consumed more alcohol than control rats (saline) during the initial 3 re-exposure sessions
lever responding, extinction sessions 1 and 2 ([3]; vs saline treated rats, Tukey's b): responded more on the lever previously associated with the delivery of alcohol
duration of alcohol deprivation effect (ADE) ([4]; female P rats, 3 mg/kg AR during adolescence): 2 days
duration of alcohol deprivation effect (ADE) ([4]; female P rats, 10 mg/kg AR during adolescence): 3 days
adult alcohol intake, 1st week of alcohol access ([4]; female P rats, 10 mg/kg AR i.p. during early adolescence vs saline or 3 mg/kg, Tukey's b): consumed more alcohol than rats administered saline or 3 mg/kg AR during adolescence
relapse EtOH drinking, Day 1 of EtOH re-exposure ([4]; female P rats, 10 mg/kg AR vs 3 mg/kg group): consumed more alcohol than the 3 mg/kg group
relapse EtOH drinking, 2nd re-exposure day ([4]; female P rats, 10 mg/kg AR vs saline): consumed more alcohol than rats administered saline
adult alcohol intake, 2nd week of alcohol access ([4]; female P rats, 3 and 10 mg/kg AR i.p. during early adolescence vs saline, p<0.05): 10 mg/kg>3 mg/kg>saline
relapse EtOH drinking, re-exposure day 3 ([4]; female P rats, 3 and 10 mg/kg AR vs saline): 10 mg/kg>3 mg/kg>Saline
relapse EtOH drinking (FIG. 3, +) ([4]; female and male P rats, 10 mg/kg during adolescence vs saline): consumed more alcohol than saline controls
average alcohol intake in adulthood (FIG. 2, #) ([4]; female and male rats, 3 mg/kg during adolescence): 3 mg/kg>saline
average alcohol intake in adulthood (FIG. 2, *) ([4]; female and male rats, 10 mg/kg during adolescence): 10 mg/kg AR-R17779>3 mg/kg and saline
ADE, EtOH intake vs baseline ([4]; male P rats, 3 mg/kg AR during adolescence, p<0.05): elevated levels of EtOH intake during the 1st re-exposure day compared to baseline intake
ADE, EtOH intake vs baseline ([4]; male P rats, 10 mg/kg AR during adolescence): Evidence of an ADE was detected during re-exposure days 1-3
adult alcohol intake, 1st and 2nd weeks of alcohol access ([4]; male P rats, 10 mg/kg AR i.p. during early adolescence vs saline or 3 mg/kg, p<0.05): consumed more alcohol than rats administered saline or 3 mg/kg AR
relapse EtOH drinking, group differences during re-exposure days 1-4 ([4]; male P rats, AR 0, 3, 10 mg/kg, p>0.083): no significant group differences

NC1(c2ccccc2Cl)CCC=CC1=O (centres unmarked) [DHNK, 5,6-dehydronorketamine]
effect on deleterious effects of adolescent alcohol exposure (adult alcohol intake, weeks 1-2) ([5]; P rats, 10 mg/kg DHNK i.p. 2 hours prior to AIE): blocked the deleterious effects of adolescent alcohol exposure
effect on deleterious effects of adolescent alcohol exposure (adult alcohol intake, weeks 1-2) ([5]; P rats, 50 mg/kg DHNK i.p. 2 hours prior to AIE): blocked the deleterious effects of adolescent alcohol exposure
adult alcohol drinking without adolescent alcohol (CON-50 mg/kg DHNK) ([5]; P rats, 50 mg/kg DHNK i.p. prior to water gavage): did not alter alcohol drinking during adulthood
effect on AIE-enhanced relapse drinking ([5]; P rats, DHNK pretreatment): altered the enhancement in relapse drinking produced by AIE exposure
relapse alcohol drinking vs baseline ([5]; female P rats, AIE-10 mg/kg DHNK, paired t-tests): increase in alcohol consumption (compared to baseline during the 1st re-exposure day)
relapse alcohol drinking vs baseline ([5]; female P rats, ATE-50 mg/kg DHNK, paired t-tests): increase in alcohol consumption during the first three re-exposure days
relapse alcohol drinking vs baseline ([5]; female P rats, CON-50 mg/kg DHNK, paired t-tests): significant increase in alcohol drinking during the 1st re-exposure day
relapse alcohol drinking vs baseline ([5]; male P rats, AIE-10 mg/kg DHNK): increase in drinking during the 1st re-exposure day
relapse alcohol drinking vs baseline (ADE) ([5]; male P rats, AIE-50 mg/kg): did not display an ADE
relapse alcohol drinking vs baseline (ADE) ([5]; male P rats, CON-50 mg/kg): did not display an ADE
effect on AIE-induced increase of adult alcohol consumption (overall) ([5]; male and female P rats, DHNK i.p. 2 hours prior to AIE): blocked the ability of adolescent alcohol exposure to increase alcohol consumption during adulthood
IC50 [6]: > 200 µM
